Data taken from PMC12720774, “Detergents alter the stability and lipid binding properties of the CD1d immunoreceptor” (Protein Science : A Publication of the Protein Society, 2025).
Where “and” joins values, the source holds several entries; their conditions need not be identical. Identical values can stand only once.

What was measured:
[1] = target: T1, recombinant human CD1d ectodomain/β2m complex (hCD1d) (Homo sapiens, UniProt P15813); assay: Intrinsic tryptophan fluorescence (ITF) binding assay; conditions: ITF - Kd (uM) average, Figure 5A; detergent binding to hCD1d
T1 construct: TEV protease cleavage site ENLYFQS (C); BirA biotinylation site (C); His7 (C); made in house; host or cells: TurboCHO cells (GenScript)
T1 sequence (P15813 whole entry, looked up, the tested form may be a part, one chain of several): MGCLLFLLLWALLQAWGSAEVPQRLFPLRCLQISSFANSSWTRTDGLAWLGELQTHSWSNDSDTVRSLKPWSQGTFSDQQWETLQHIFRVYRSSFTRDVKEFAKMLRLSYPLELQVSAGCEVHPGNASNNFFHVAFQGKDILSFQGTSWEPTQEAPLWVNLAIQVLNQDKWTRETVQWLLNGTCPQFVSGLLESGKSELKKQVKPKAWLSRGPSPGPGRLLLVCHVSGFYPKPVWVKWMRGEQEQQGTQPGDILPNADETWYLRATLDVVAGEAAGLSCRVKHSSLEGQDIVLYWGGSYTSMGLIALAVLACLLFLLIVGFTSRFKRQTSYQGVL
Method: (§1) For ITF assays, the concentration of hCD1d was kept constant, and intrinsic Trp fluorescence (excitation at 285 nm, emission at 335 nm) was measured as a function of increasing detergent concentration (Fossum et al., [2023]) (Figure S2). The change in relative fluorescence intensity (F − F 0/F 0) provides an indication of binding. […] This was due to limited detergent solubility and decreased hCD1d stability in the presence of a large excess of detergent (see below). […] SDS was the exception, for which Trp fluorescence of hCD1d decreased with added detergent. This could indicate a unique conformational change or destabilization of the protein.
(§2) ITF spectra were recorded from 300 to 500 nm using a Horiba FL3‐21 Fluorometer with the excitation wavelength of 285 nm and excitation/emission slits of 6.2 nm. Fluorescence spectra of 50 to 100 nM hCD1d were acquired in the absence and presence of detergents in 1X PBS pH 7.4 at 25°C. Prior to data acquisition, hCD1d and detergent or lipid samples were incubated at 37°C overnight (~12 h) to simulate in vitro and in vivo loading conditions. […] For 18:1 LPC experiments, fluorescence spectra of 100 nM hCD1d were acquired in the absence and presence of 18:1 LPC in 1X PBS pH 7.4 at 25°C. […] For all ITF experiments, the change in fluorescence signal (F − F 0/F 0) was determined at 335 nm. Three replicates were performed, and data are presented as the mean ± standard deviation (n = 3). K D values were fitted with non‐linear regression in GraphPad Prism v10.1.

[2] = target: T2, recombinant human CD1d ectodomain/β2m complex (hCD1d) (Homo sapiens, UniProt P15813+P61769); assay: as above
T2 construct: TEV protease cleavage site ENLYFQS (C); BirA biotinylation site (C); His7 (C); made in house; host or cells: TurboCHO cells (GenScript)
T2 sequence (P61769+P15813 fused): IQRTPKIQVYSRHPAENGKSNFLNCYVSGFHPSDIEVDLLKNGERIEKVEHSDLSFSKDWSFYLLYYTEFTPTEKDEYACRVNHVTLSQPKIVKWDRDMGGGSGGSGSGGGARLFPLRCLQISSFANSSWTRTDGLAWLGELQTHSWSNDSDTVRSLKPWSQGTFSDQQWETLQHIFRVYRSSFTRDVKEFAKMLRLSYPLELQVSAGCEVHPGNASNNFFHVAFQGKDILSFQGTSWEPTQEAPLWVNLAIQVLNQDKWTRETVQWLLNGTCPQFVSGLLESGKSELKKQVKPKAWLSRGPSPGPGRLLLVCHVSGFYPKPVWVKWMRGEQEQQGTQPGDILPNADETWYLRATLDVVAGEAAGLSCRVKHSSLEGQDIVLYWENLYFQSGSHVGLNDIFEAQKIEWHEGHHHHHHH
Method: as §1, §2

AF647‐labeled hCD1d [3] = target: T3, AF647‐labeled hCD1d (Homo sapiens, UniProt P15813); assay: Microscale thermophoresis (MST) binding assay
T3 construct: TEV protease cleavage site ENLYFQS (C); BirA biotinylation site (C); His7 (C); made in house; host or cells: TurboCHO cells (GenScript)
T3 sequence (P15813 whole entry, looked up): as the sequence (P15813 whole entry, looked up, the tested form may be a part, one chain of several) above
Excerpt: (§3) The experimental limitations of ITF, such as low instrument sensitivity, high sample consumption, signal overlap with some ligands, and low throughput (Fossum et al., [2023]), made it necessary to employ alternative, complementary assays to quantify detergent binding to hCD1d. […] MST measures the diffusion of fluorescent molecules in response to microscopic temperature gradients (Seidel et al., [2013]). When a protein forms a complex with a ligand, changes in hydrodynamic properties, charge, or solvation energy alter its thermophoretic behavior, allowing detection of binding events. To perform MST experiments, Alexa Fluor 647 (AF647) dye was covalently attached to the primary amines of hCD1d via standard N‐hydroxysuccinimide coupling chemistry (Anderson et al., [1964]). The concentration of AF647‐hCD1d was kept constant, and the change in MST signal was measured as a function of increasing detergent concentration (Figure S3). Like ITF, any lipid or detergent that destabilizes CD1 can also alter the MST signal since unfolding changes the protein's Stokes radius and its thermophoretic behavior. […] This is why we compare MST results with ITF and nanoDSF, as described below.
(§4) For MST, hCD1d was fluorescently labeled with AF647‐NHS Ester (Invitrogen #A20006). Briefly, a 10 mM stock of AF647‐NHS was prepared in anhydrous DMSO. Then, 100 μL of 50 μM hCD1d in 1X PBS pH 7.4 was mixed with 1 μL of 10 mM AF647‐NHS (1:2 molar ratio of protein: dye). The mixture was allowed to react for 1 h in the dark at 25°C. Unreacted dye was removed from the protein–dye conjugate by performing size exclusion chromatography in the dark with a Superdex 200 Increase 10/300 GL column at a flow rate of 0.5 mL/min in SEC buffer (100 mM NaCl, 20 mM sodium phosphate, pH 7.2). The degree of labeling was determined by a NanoDrop spectrophotometer at A647 nm (dye absorbance) and A280 nm (hCD1d absorbance). The degree of labeling was determined from the ratio of dye concentration to protein concentration. The degree of labeling was ~75%.
(§5) MST experiments were performed using a Monolith NT.115 instrument (NanoTemper Technologies) using Monolith standard capillaries and the red excitation laser setup. The following settings were applied for all MST experiments: excitation power: 30%–50%, MST power: medium, before MST time: 3 s, MST on time (IR laser): 20 seconds, and after MST time: 1 s. MST measurements were analyzed using the Monolith Affinity Analysis software v2.3 and exported for plotting in GraphPad Prism v10.1. Three replicates were performed, and data are presented as the mean ± standard deviation (n = 3).
(§6) MST measurements of 100 nM AF647‐hCD1d were acquired in the absence and presence of detergents in 1X PBS pH 7.4 at 25°C. Prior to data acquisition, hCD1d and detergent or lipid samples were incubated at 37°C overnight (~12 h) to simulate in vitro and in vivo loading conditions. […] For 18:1 LPC experiments: MST data of 100 nM AF647‐hCD1d were acquired in the absence and presence of 18:1 LPC in 1X PBS pH 7.4 at 25°C.

AF647‐labeled hCD1d [4] = target: T4, AF647‐labeled hCD1d (Homo sapiens, UniProt P15813+P61769); assay: Microscale thermophoresis (MST) binding assay
T4 construct: TEV protease cleavage site ENLYFQS (C); BirA biotinylation site (C); His7 (C); made in house; host or cells: TurboCHO cells (GenScript)
T4 sequence (P61769+P15813 fused): as the sequence (P61769+P15813 fused) above
Excerpt: as §3, §4, §5, §6

C[C@H](CCC(=O)NCCC[N+](C)(C)CCCS(=O)(=O)[O-])[C@H]1CC[C@H]2[C@@H]3[C@H](O)C[C@@H]4C[C@H](O)CC[C@]4(C)[C@H]3C[C@H](O)[C@]12C [CHAPS, 3‐((3‐cholamidopropyl) dimethylammonio)‐1‐propanesulfonate]
Kd [1]: 269 µM | binding to hCD1d by ITF (in words) [2]: observable binding | F-F0/F0 (rep 1-3) ([2]; 3.0518e-8 M detergent): 0 | F-F0/F0 (rep 1-3) ([2]; 0.001 M detergent, 100 nM hCD1d): 0.1904 and 0.2276 and 0.116 | Kd ([2]; read-out: K D (ITF), detergent with 100 nM hCD1d, 25°C, 1X PBS pH 7.4, apparent): < 400 µM | Kd (AF647‐labeled hCD1d [3]; K D (MST), detergent with 100 nM AF647‐labeled hCD1d, 25°C, apparent): < 200 µM | Kd (AF647‐labeled hCD1d [3]; MST - Kd (uM) average, Figure 5B, detergent binding to hCD1d): 90.4 µM | Fnorm (rep 1-3) (AF647‐labeled hCD1d [4]; 3.05176e-8 M detergent): 790.173 ‰ and 791.465 ‰ and 791.791 ‰ | Fnorm (rep 1-3) (AF647‐labeled hCD1d [4]; 6.10352e-8 M detergent): 791.241 ‰ and 791.286 ‰ and 792.264 ‰ | Fnorm (rep 1-3) (AF647‐labeled hCD1d [4]; 1.2207e-7 M detergent): 790.851 ‰ and 791.968 ‰ and 791.334 ‰ | Fnorm (rep 1-3) (AF647‐labeled hCD1d [4]; 2.44141e-7 M detergent): 791.909 ‰ and 789.682 ‰ and 791.374 ‰ | Fnorm (rep 1-3) (AF647‐labeled hCD1d [4]; 4.88281e-7 M detergent): 790.852 ‰ and 792.443 ‰ and 789.72 ‰ | Fnorm (rep 1-3) (AF647‐labeled hCD1d [4]; 9.76563e-7 M detergent): 790.963 ‰ and 791.166 ‰ and 789.816 ‰ | Fnorm (rep 1-3) (AF647‐labeled hCD1d [4]; 1.95313e-6 M detergent): 790.601 ‰ and 790.682 ‰ and 790.374 ‰ | Fnorm (rep 1-3) (AF647‐labeled hCD1d [4]; 3.90625e-6 M detergent): 791.182 ‰ and 790.338 ‰ and 790.7 ‰ | Fnorm (rep 1-3) (AF647‐labeled hCD1d [4]; 7.8125e-6 M detergent): 792.893 ‰ and 791.581 ‰ and 790.149 ‰ | Fnorm (rep 1-3) (AF647‐labeled hCD1d [4]; 1.5625e-5 M detergent): 792.783 ‰ and 794.481 ‰ and 793.14 ‰ | Fnorm (rep 1-3) (AF647‐labeled hCD1d [4]; 3.125e-5 M detergent): 797.777 ‰ and 796.648 ‰ and 796.885 ‰ | Fnorm (rep 1-3) (AF647‐labeled hCD1d [4]; 6.25e-5 M detergent): 802.833 ‰ and 802.212 ‰ and 800.436 ‰ | Fnorm (rep 1-3) (AF647‐labeled hCD1d [4]; 0.000125 M detergent): 807.041 ‰ and 807.203 ‰ and 808.474 ‰ | Fnorm (rep 1-3) (AF647‐labeled hCD1d [4]; 0.00025 M detergent): 810.973 ‰ and 810.93 ‰ and 810.716 ‰ | Fnorm (rep 1-3) (AF647‐labeled hCD1d [4]; 0.0005 M detergent): 814.652 ‰ and 812.289 ‰ and 815.372 ‰ | Fnorm (rep 1-3) (AF647‐labeled hCD1d [4]; 0.001 M detergent, 100 nM AF647‐hCD1d): 815.189 ‰ and 817.537 ‰ and 819.368 ‰
